{
  "source": "the NIST ThermoML archive (doi:10.1016/j.jct.2017.02.010)",
  "settings": "Gas chromatography",
  "note": "± gives the expanded uncertainty stated by the source.",
  "data": [
    {"smiles": "CC1=C2CC[C@@H](C)C[C@H]2OC1=O", "note": "[(-)-mintlactone]", "values": [
      {"measurement": "vapor or sublimation pressure", "setting": "298.15 K, Metastable liquid", "result": "0.00033 ± 5e-05", "unit": "kPa"},
      {"measurement": "vapor or sublimation pressure", "setting": "305 K, Metastable liquid", "result": "0.00063 ± 0.00011", "unit": "kPa"},
      {"measurement": "vapor or sublimation pressure", "setting": "310 K, Metastable liquid", "result": "0.001 ± 0.0002", "unit": "kPa"},
      {"measurement": "vapor or sublimation pressure", "setting": "315 K, Metastable liquid", "result": "0.0015 ± 0.0004", "unit": "kPa"},
      {"measurement": "vapor or sublimation pressure", "setting": "320 K, Metastable liquid", "result": "0.0024 ± 0.0006", "unit": "kPa"},
      {"measurement": "vapor or sublimation pressure", "setting": "325 K, Metastable liquid", "result": "0.0035 ± 0.0008", "unit": "kPa"},
      {"measurement": "vapor or sublimation pressure", "setting": "330 K, Metastable liquid", "result": "0.0053 ± 0.0013", "unit": "kPa"},
      {"measurement": "vapor or sublimation pressure", "setting": "335 K, Metastable liquid", "result": "0.0077 ± 0.0017", "unit": "kPa"},
      {"measurement": "vapor or sublimation pressure", "setting": "340 K, Metastable liquid", "result": "0.011 ± 0.002", "unit": "kPa"},
      {"measurement": "vapor or sublimation pressure", "setting": "345 K, Metastable liquid", "result": "0.016 ± 0.002", "unit": "kPa"},
      {"measurement": "vapor or sublimation pressure", "setting": "350 K, Metastable liquid", "result": "0.023 ± 0.004", "unit": "kPa"}
    ]},
    {"smiles": "CC1=C2CC[C@@H](C)C[C@@H]2OC1=O", "note": "[(.+-.)-isomintlactone]", "values": [
      {"measurement": "vapor or sublimation pressure", "setting": "298.15 K, Metastable liquid", "result": "0.00026 ± 4e-05", "unit": "kPa"},
      {"measurement": "vapor or sublimation pressure", "setting": "305 K, Metastable liquid", "result": "0.00051 ± 9e-05", "unit": "kPa"},
      {"measurement": "vapor or sublimation pressure", "setting": "310 K, Metastable liquid", "result": "0.00081 ± 0.00017", "unit": "kPa"},
      {"measurement": "vapor or sublimation pressure", "setting": "315 K, Metastable liquid", "result": "0.0013 ± 0.0002", "unit": "kPa"},
      {"measurement": "vapor or sublimation pressure", "setting": "320 K, Metastable liquid", "result": "0.0019 ± 0.0004", "unit": "kPa"},
      {"measurement": "vapor or sublimation pressure", "setting": "325 K, Metastable liquid", "result": "0.0029 ± 0.0006", "unit": "kPa"},
      {"measurement": "vapor or sublimation pressure", "setting": "330 K, Metastable liquid", "result": "0.0044 ± 0.001", "unit": "kPa"},
      {"measurement": "vapor or sublimation pressure", "setting": "335 K, Metastable liquid", "result": "0.0064 ± 0.0015", "unit": "kPa"},
      {"measurement": "vapor or sublimation pressure", "setting": "340 K, Metastable liquid", "result": "0.0093 ± 0.0021", "unit": "kPa"},
      {"measurement": "vapor or sublimation pressure", "setting": "345 K, Metastable liquid", "result": "0.013 ± 0.002", "unit": "kPa"},
      {"measurement": "vapor or sublimation pressure", "setting": "350 K, Metastable liquid", "result": "0.019 ± 0.004", "unit": "kPa"}
    ]},
    {"smiles": "CCCC[C@H]1OC(=O)C[C@H]1C", "note": "[cis-whiskey lactone]", "values": [
      {"measurement": "vapor or sublimation pressure", "setting": "298.15 K, Liquid", "result": "0.0015 ± 0.0002", "unit": "kPa"},
      {"measurement": "vapor or sublimation pressure", "setting": "305 K, Liquid", "result": "0.0028 ± 0.0004", "unit": "kPa"},
      {"measurement": "vapor or sublimation pressure", "setting": "310 K, Liquid", "result": "0.0043 ± 0.0009", "unit": "kPa"},
      {"measurement": "vapor or sublimation pressure", "setting": "315 K, Liquid", "result": "0.0064 ± 0.0013", "unit": "kPa"},
      {"measurement": "vapor or sublimation pressure", "setting": "320 K, Liquid", "result": "0.0095 ± 0.0019", "unit": "kPa"},
      {"measurement": "vapor or sublimation pressure", "setting": "325 K, Liquid", "result": "0.014 ± 0.002", "unit": "kPa"},
      {"measurement": "vapor or sublimation pressure", "setting": "330 K, Liquid", "result": "0.02 ± 0.004", "unit": "kPa"},
      {"measurement": "vapor or sublimation pressure", "setting": "335 K, Liquid", "result": "0.029 ± 0.006", "unit": "kPa"},
      {"measurement": "vapor or sublimation pressure", "setting": "340 K, Liquid", "result": "0.041 ± 0.009", "unit": "kPa"},
      {"measurement": "vapor or sublimation pressure", "setting": "345 K, Liquid", "result": "0.057 ± 0.011", "unit": "kPa"},
      {"measurement": "vapor or sublimation pressure", "setting": "350 K, Liquid", "result": "0.079 ± 0.013", "unit": "kPa"}
    ]},
    {"smiles": "CCCC[C@H]1OC(=O)C[C@@H]1C", "note": "[trans-whiskey lactone]", "values": [
      {"measurement": "vapor or sublimation pressure", "setting": "298.15 K, Liquid", "result": "0.002 ± 0.0003", "unit": "kPa"},
      {"measurement": "vapor or sublimation pressure", "setting": "305 K, Liquid", "result": "0.0036 ± 0.0007", "unit": "kPa"},
      {"measurement": "vapor or sublimation pressure", "setting": "310 K, Liquid", "result": "0.0056 ± 0.0011", "unit": "kPa"},
      {"measurement": "vapor or sublimation pressure", "setting": "315 K, Liquid", "result": "0.0084 ± 0.0017", "unit": "kPa"},
      {"measurement": "vapor or sublimation pressure", "setting": "320 K, Liquid", "result": "0.012 ± 0.003", "unit": "kPa"},
      {"measurement": "vapor or sublimation pressure", "setting": "325 K, Liquid", "result": "0.018 ± 0.004", "unit": "kPa"},
      {"measurement": "vapor or sublimation pressure", "setting": "330 K, Liquid", "result": "0.026 ± 0.006", "unit": "kPa"},
      {"measurement": "vapor or sublimation pressure", "setting": "335 K, Liquid", "result": "0.037 ± 0.007", "unit": "kPa"},
      {"measurement": "vapor or sublimation pressure", "setting": "340 K, Liquid", "result": "0.052 ± 0.011", "unit": "kPa"},
      {"measurement": "vapor or sublimation pressure", "setting": "345 K, Liquid", "result": "0.072 ± 0.013", "unit": "kPa"},
      {"measurement": "vapor or sublimation pressure", "setting": "350 K, Liquid", "result": "0.099 ± 0.016", "unit": "kPa"}
    ]}
  ]
}
